Holding throughout (test): NCI tumour cell line growth inhibition, 48 h
Assay [1] relates to KM12 colon.
The test system of assay [2] is 786-0 renal.
The test system of assay [3] is RXF 393 renal.
The test system of assay [4] is HCT-116 colon.
Assay [5] relates to HS 578T breast.
Assay [6] has as its system SN12C renal.
In assay [7] the test system is M14 melanoma.
Assay [8] relates to SK-MEL-5 melanoma.
The subject of assay [9] is UO-31 renal.
The subject of assay [10] is SW-620 colon.

Values joined by “and” are separate entries in the source; they are usually repeats but may differ in a detail not shown here. Equal entries are not always repeated.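 Interpolation was linear, between the two tested concentrations surrounding the appropriate level; five concentrations were tested over 48 hours in 96-well plates. Abbreviation: GI50, concentration required for 50% inhibition of growth. At the TGI there is no net growth.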

Take `O=C1c2ccccc2-c2c1c1c(O)cccc1n2Cc1ccccc1`: the GI50 in assay [1] is 15.8 µM; in assay [2], 15.6 µM; in assay [3] it was 11.5 µM; in assay [4], 11.8 µM; in assay [5], 10.3 µM; in assay [6] it was 14.1 µM. The GI50 in [7] is 26.7 µM; in assay [8], 5.62 µM; in [9], 21.8 µM; in [10], 38 µM. In addition, the TGI was 84.9 µM in assay [1]; 31.9 µM in assay [2]; 44.8 µM in [3]; > 100 µM in [4]; 32.8 µM in assay [5]; > 100 µM in [6]. Also, the TGI is > 100 µM in assay [7], 24.7 µM in [8], > 100 µM in assay [9] and > 100 µM in [10].

For the compound `C=C(C)c1nc(Oc2ccccc2)nc(Oc2ccccc2)n1`, the TGI in [1] came to 10.9 µM; in [2], 15 µM; in assay [3], 8.11 µM; in assay [4], 10.5 µM; in [5] it was 44.1 µM; in assay [6], 16.4 µM. The TGI in assay [7] amounted to 11.3 µM; in [8], 27.4 µM; in [9] it was 32.1 µM; in assay [10] it was 15.7 µM.

Turning to `COc1ccc(Cn2c(Br)c3c(c2-c2cc(OC)c(OC)c(OC)c2)CCc2sc(N)nc2-3)cc1`, the GI50 in assay [1] is 1.18 µM; in assay [2] it was 2.17 µM; in assay [3], 0.448 µM; in [4], 1.4 µM; in [5], 2.08 µM; in assay [6], 2.15 µM. The GI50 is 1.36 µM in [7], 1.6 µM in assay [8], 1.5 µM in assay [9] and 0.515 µM in assay [10]. Further, the TGI is > 30 µM in assay [1]; > 49.8 µM in [2]; 14.8 µM in [3]; > 100 µM in assay [4]; > 100 µM in assay [5]; 14.2 µM in assay [6]. For the same compound, the TGI in assay [7] was > 44.9 µM; in [8], 13.5 µM; in assay [9] it was 17.9 µM; in assay [10] it was 7.65 µM.

Turning to `CNCc1cccc2c1OCCOCCOCCNS(=O)(=O)c1ccc(cc1)-c1cnc(N)c(n1)C(=O)N2`, the GI50 in assay [1] was 1.22 µM; in assay [2] it was 1.22 µM; in assay [3], 0.353 µM; in assay [4], 0.67 µM; in assay [5], 0.477 µM; in assay [6], 1.22 µM. The GI50 is 1.31 µM in [7], 1.69 µM in assay [8], 9.82 µM in [9] and 0.875 µM in assay [10]. For the same compound, the TGI came to 2.98 µM in assay [1]; 2.89 µM in assay [2]; 1.72 µM in assay [3]; 2.67 µM in assay [4]; 3.05 µM in [5]; 3.79 µM in assay [6]. The TGI in assay [7] came out at 2.71 µM; in assay [8], 3.29 µM; in assay [9], 23.1 µM; in assay [10], 3.13 µM.

For the compound `COc1nc(N)nc2nc[nH]c12`, the GI50 is > 800 µM and 842 µM in [1]; 639 µM and 214 µM in [2]; 747 µM and 670 µM in [4]; 603 µM in [5]; 536 µM and 552 µM in [6]; 772 µM and 585 µM in assay [7]. The GI50 is > 800 µM and 782 µM in [8]; 161 µM and 299 µM in [9]; > 1000 µM in assay [10]. For the same compound, the TGI in assay [1] was > 1000 µM; in assay [2], 500 µM and 800 µM and > 418 µM; in assay [3] it was 489 µM and 800 µM and 914 µM; in [4], 500 µM and 800 µM and > 1000 µM; in assay [5], 500 µM and > 1000 µM; in assay [6] it was 500 µM and 800 µM and > 1000 µM. For the same compound, the TGI is 500 µM and 800 µM and > 1000 µM in assay [7]; > 1000 µM in assay [8]; 485 µM and 579 µM and > 1000 µM in assay [9]; > 1000 µM in assay [10].

Regarding `Cn1cc(-c2ccc3c(c2)ncn3-c2cc(NS(=O)(=O)C3CC3)cc(-c3ccc(F)cc3F)c2)cn1`, the GI50 in assay [1] was 4.96 µM; in assay [2] it was 6.05 µM; in [3] it was 1.53 µM; in assay [4], 5.39 µM; in assay [5], 1.68 µM; in assay [6], 2.99 µM. Moreover, the GI50 in assay [7] is 14.9 µM; in assay [8] it was 13.1 µM; in [9], 0.635 µM; in assay [10], 39.1 µM. Moreover, the TGI in assay [1] is > 100 µM; in [2], > 100 µM; in assay [3] it was 8.17 µM; in [4], 55.8 µM; in assay [5], 12.6 µM; in assay [6], > 100 µM. The TGI was > 100 µM in assay [7], 32 µM in assay [8], 36.7 µM in assay [9] and > 100 µM in assay [10].

In the case of `N=C(N)SCc1ccc(Cl)c2ccccc12` (tested in a mixture with another compound), the TGI was 28.3 µM and 27.7 µM in assay [1]; 23.9 µM and 27.2 µM in [2]; 20.5 µM and 22.7 µM in assay [3]; 24.5 µM and 28.2 µM in [4]; 48.1 µM and 53 µM in assay [5]; 24.3 µM and 24.9 µM in [6]. Moreover, the TGI in [7] is 23.8 µM and 26.5 µM; in [8], 25.6 µM and 21.6 µM; in assay [9], 24.3 µM and 26.3 µM; in assay [10], 28.5 µM and 27.6 µM.

With `COc1cc2c3c(n(CCCN)c(=O)c2cc1OC)-c1ccc(N)cc1C3=O`, the GI50 in assay [1] is 9.26 µM; in [2] it was 1.91 µM; in assay [3], 1.07 µM; in assay [4], 0.339 µM; in assay [5], 2.02 µM; in [6], 2.98 µM. Besides, the GI50 in assay [7] was 2.21 µM; in [8], 0.902 µM; in assay [9], 37.2 µM; in [10], 0.607 µM. Besides, the TGI in assay [1] was > 74.2 µM; in assay [2] it was 5.04 µM; in assay [3] it was 7.22 µM; in assay [4], 1.35 µM; in [5] it was 12.5 µM; in assay [6], 27.3 µM. The TGI in [7] is 13.7 µM; in [8] it was 2.88 µM; in [9], > 100 µM; in [10], 11.7 µM.

As for `CN(c1ccccc1)c1c2ccccc2nc2[nH]c3ccccc3c12`, the GI50 was 2.24 µM in assay [1]; 1.76 µM in [2]; 2.11 µM in assay [3]; 2.89 µM in [4]; 3.06 µM in assay [5]; 1.68 µM in assay [6]. Further, the GI50 in [7] is 2.21 µM; in assay [8] it was 1.62 µM; in assay [9] it was 1.22 µM; in assay [10], 2.04 µM. The TGI in assay [1] stood at 7.4 µM; in assay [2], 4.33 µM; in [3], 38.7 µM; in assay [4], 8.72 µM; in [5], 12.9 µM; in assay [6], 5.06 µM. Besides, the TGI worked out at 4.43 µM in assay [7], 3.56 µM in [8], 3.66 µM in [9] and 8.82 µM in [10].

With `Oc1c(Br)cc(Cl)cc1C(c1cc(Cl)cc(Br)c1O)C(Cl)(Cl)Cl`, the GI50 in assay [1] is 2.8 µM; in assay [2], 2.96 µM; in assay [3], 2.73 µM; in assay [4], 2.12 µM; in assay [5], 2.46 µM; in [6], 2.1 µM. Further, the GI50 in assay [7] was 3.74 µM; in [8], 1.64 µM; in assay [9], 2.81 µM; in [10], 3.28 µM. The TGI is 9.3 µM in assay [1]; 10.3 µM in assay [2]; 8.77 µM in assay [3]; 7.91 µM in [4]; > 21.9 µM in assay [5]; 11.8 µM in assay [6]. Moreover, the TGI in [7] is 12.8 µM; in assay [8], 3.83 µM; in [9] it was 9.61 µM; in assay [10] it was 13 µM.

The values above are taken from PubChem BioAssay (NCI).
